Measured values: patent US11517532B2, “Methods of treating hepatitis delta virus infection” (Eiger BioPharmaceuticals, Inc., priority 2015, dated 2022)
Like-named read-outs stand apart in the source and are kept apart here.

What was measured:
[1] = formulated in crystalline forms, animals; cited from earlier work
[2] = Lonafarnib serum concentration in HDV patients, Example 3; format: in vivo, human; settings: for LNF Serum Concentration at Week 6 / concentration at 6 weeks: oral; for LNF Serum Concentration at Week 6: listed as LNF; for concentration at 6 weeks: human, serum, po, read-out: LNF Serum Concentration at Week 6
Procedure: Serum levels of lonafarnib can be measured using art-known methods. As used herein, a serum lonafarnib level or concentration can be measured from a serum sample obtained from a subject periodically (such as weekly, biweekly, monthly or according to other schedules) and the levels during intervening periods can be extrapolated. For example, if a measurement of 4,000 ng/ml is obtained at 4 weeks and a measurement of 6,000 ng/ml is obtained at 6 weeks, for purposes of this analysis it is concluded that the serum level during the intervening two weeks ranged between 4,000 and 6,000 ng/ml. In some embodiments the first measurement is made no earlier than one week after the initiation of oral therapy.
This example describes the anti-HDV effect of combination therapy with separately formulated lonafarnib and ritonavir at several combinations of dosages. Eight patients with chronic HDV infection were divided into four groups and treated with different dose combinations of separately formulated lonafarnib and ritonavir (orally administered) for 42 days under the regimens summarized in Table 10. The patients were followed for an additional period of time after discontinuation of therapy.

[3] = cited from earlier work
[4] = Group 2 (Patients 3-4): lonafarnib 100 mg BID + ritonavir 50 mg QD
[5] = Group 3 (Patients 5-6): lonafarnib 100 mg QD + ritonavir 100 mg QD
[6] = Group 4 (Patients 7-8): lonafarnib 150 mg QD + ritonavir 100 mg QD

Structure (SMILES): NC(=O)N1CCC(CC(=O)N2CCC([C@H]3c4ncc(Br)cc4CCc4cc(Cl)cc(Br)c43)CC2)CC1 [lonafarnib]
- bioavailability [1]: low and variable
- LNF Serum Concentration at Week 6 [2, 4]: 3044 ng/mL
- LNF Serum Concentration at Week 6 [2, 5]: 1640 ng/mL
- LNF Serum Concentration at Week 6 [2, 6]: 1830 ng/mL
- lonafarnib serum levels (FIG. 6) ([2]; Patient 8, reduced correlation with HDV viral load): ~2,000 ng/mL
- LNF serum concentrations ([2]; QD dosing of ritonavir): 2500 to 3500 ng/mL
- concentration at 6 weeks [2, 4]: 4.03 µg/mL
- concentration at 6 weeks [2, 5]: 2.34 µg/mL
- concentration at 6 weeks [2, 6]: 1.84 µg/mL
- lonafarnib serum levels (FIG. 5) ([2]; one patient, 100 mg BID lonafarnib + 100 mg QD ritonavir, inverse correlation with HDV viral load): ~5,000 ng/mL
- stability in solution ([3]; by pH): stable at neutral pH but will hydrolyze in acidic or basic conditions
- water solubility [3]: poorly water soluble
